Results reported in patent publication US10213433B2 (AbbVie Inc., priority 2010, dated 2019).
pKi: −log10 of the molar value.

What follows are compounds tested against Bcl-2 protein (Homo sapiens (Human), UniProt P10415) (assay: Bcl-2 binding TR-FRET (Time-Resolved Fluorescence-Resonance-Energy-Transfer) assay). Details: inhibition constant for binding to Bcl-2 protein.
Sequence of Bcl-2 protein (P10415 whole entry): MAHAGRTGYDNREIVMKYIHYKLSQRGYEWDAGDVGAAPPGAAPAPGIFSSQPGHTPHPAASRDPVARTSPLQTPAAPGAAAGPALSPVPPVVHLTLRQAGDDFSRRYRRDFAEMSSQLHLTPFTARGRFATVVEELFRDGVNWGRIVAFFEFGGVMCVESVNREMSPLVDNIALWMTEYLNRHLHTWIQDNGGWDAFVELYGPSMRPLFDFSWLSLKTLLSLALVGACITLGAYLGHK
Excerpt: The smaller the Ki value, the greater is the binding affinity.
CC1(C)CCC(CN2CCN(c3ccc(C(=O)NS(=O)(=O)c4ccc(NCC5COCCN5C5CCOC5)c([N+](=O)[O-])c4)c(Oc4cnc5[nH]ccc5c4)c3)CC2)=C(c2ccc(Cl)cc2)C1 (stereo not drawn) [Compound 171, 4-(4-{[2-(4-chlorophenyl)-4,4-dimethylcyclohex-1-en-1-yl]methyl}piperazin-1-yl)-N-[(3-nitro-4-{[(4-tetrahydrofuran-3-ylmorpholin-3-yl)methyl]amino}phenyl)sulfonyl]-2-(1H-pyrrolo[2,3-b]pyridin-5-yloxy)benzamide] was tested, and the pKi was > 11.00.
In the case of CC1(C)CCC(CN2CCN(c3ccc(C(=O)NS(=O)(=O)c4ccc(NCC5CCN(C(CF)CF)CC5)c([N+](=O)[O-])c4)c(Oc4cnc5[nH]ccc5c4)c3)CC2)=C(c2ccc(Cl)cc2)C1 [Compound 172, 4-(4-{[2-(4-chlorophenyl)-4,4-dimethylcyclohex-1-en-1-yl]methyl}piperazin-1-yl)-N-({4-[({1-[2-fluoro-1-(fluoromethyl)ethyl]piperidin-4-yl}methyl)amino]-3-nitrophenyl}sulfonyl)-2-(1H-pyrrolo[2,3-b]pyridin-5-yloxy)benzamide], the pKi was > 11.00.
For CC1(C)CCC(CN2CCN(c3ccc(C(=O)NS(=O)(=O)c4ccc(OCC5(F)CCN(C6CC6)CC5)c([N+](=O)[O-])c4)c(Oc4cnc5[nH]ccc5c4)c3)CC2)=C(c2ccc(Cl)cc2)C1 [Compound 173, 4-(4-{[2-(4-chlorophenyl)-4,4-dimethylcyclohex-1-en-1-yl]methyl}piperazin-1-yl)-N-({4-[(1-cyclopropyl-4-fluoropiperidin-4-yl)methoxy]-3-nitrophenyl}sulfonyl)-2-(1H-pyrrolo[2,3-b]pyridin-5-yloxy)benzamide], the pKi was > 11.00.
In the case of COc1ccc(CNc2ccc(S(=O)(=O)NC(=O)c3ccc(N4CCN(CC5=C(c6ccc(Cl)cc6)CC(C)(C)CC5)CC4)cc3Oc3cnc4[nH]ccc4c3)cc2[N+](=O)[O-])cc1 [Compound 174, 4-(4-{[2-(4-chlorophenyl)-4,4-dimethylcyclohex-1-en-1-yl]methyl}piperazin-1-yl)-N-({4-[(4-methoxybenzyl)amino]-3-nitrophenyl}sulfonyl)-2-(1H-pyrrolo[2,3-b]pyridin-5-yloxy)benzamide], the pKi was > 11.00.
With CC1(C)CCC(CN2CCN(c3ccc(C(=O)NS(=O)(=O)c4ccc(N[C@@H]5CCN(CC(F)F)C5)c([N+](=O)[O-])c4)c(Oc4cnc5[nH]ccc5c4)c3)CC2)=C(c2ccc(Cl)cc2)C1 [Compound 180, 4-(4-{[2-(4-chlorophenyl)-4,4-dimethylcyclohex-1-en-1-yl]methyl}piperazin-1-yl)-N-[(4-{[(3R)-1-(2,2-difluoroethyl)pyrrolidin-3-yl]amino}-3-nitrophenyl)sulfonyl]-2-(1H-pyrrolo[2,3-b]pyridin-5-yloxy)benzamide] the pKi was > 11.00.
CC1(C)CCC(CN2CCN(c3ccc(C(=O)NS(=O)(=O)c4ccc(N[C@H]5CCN(CC(F)F)C5)c([N+](=O)[O-])c4)c(Oc4cnc5[nH]ccc5c4)c3)CC2)=C(c2ccc(Cl)cc2)C1 [Compound 182, 4-(4-{[2-(4-chlorophenyl)-4,4-dimethylcyclohex-1-en-1-yl]methyl}piperazin-1-yl)-N-[(4-{[(3S)-1-(2,2-difluoroethyl)pyrrolidin-3-yl]amino}-3-nitrophenyl)sulfonyll]-2-(1H-pyrrolo[2,3-b]pyridin-5-yloxy)benzamide] was tested, and the pKi was 10.17.
In the case of CC1(C)CCC(CN2CCN(c3ccc(C(=O)NS(=O)(=O)c4ccc(N[C@@H]5CCN(CCF)C5)c([N+](=O)[O-])c4)c(Oc4cnc5[nH]ccc5c4)c3)CC2)=C(c2ccc(Cl)cc2)C1 [Compound 183, 4-(4-{[2-(4-chlorophenyl)-4,4-dimethylcyclohex-1-en-1-yl]methyl}piperazin-1-yl)-N-[(4-{[(3R)-1-(2-fluoroethyl)pyrrolidin-3-yl]amino}-3-nitrophenyl)sulfonyl]-2-(1H-pyrrolo[2,b]pyridin-5-yloxy)benzamide], the pKi was > 11.00.
CC1(C)CCC(CN2CCN(c3ccc(C(=O)NS(=O)(=O)c4ccc(OC[C@H]5CCN(C6COC6)C5)c([N+](=O)[O-])c4)c(Oc4cnc5[nH]ccc5c4)c3)CC2)=C(c2ccc(Cl)cc2)C1 [Compound 184, 4-(4-{[2-(4-chlorophenyl)-4,4-dimethylcyclohex-1-en-1-yl]methyl}piperazin-1-yl)-N-[(3-nitro-4-{[(3S)-1-oxetan-3-ylpyrrolidin-3-yl]methoxy}phenyl)sulfonyl]-2-(1H-pyrrolo[2,3-b]pyridin-5-yloxy)benzamide] was tested, and the pKi was > 11.00.
With CC1(C)CCC(CN2CCN(c3ccc(C(=O)NS(=O)(=O)c4ccc(OCC5CCN(C6COC6)CC5)c([N+](=O)[O-])c4)c(Oc4cnc5[nH]ccc5c4)c3)CC2)=C(c2ccc(Cl)cc2)C1 [Compound 191, 4-(4-{[2-(4-chlorophenyl)-4,4-dimethylcyclohex-1-en-1-yl]methyl}piperazin-1-yl)-N-({3-nitro-4-[(1-oxetan-3-ylpiperidin-4-yl)methoxy]phenyl}sulfonyl)-2-(1H-pyrrolo[2,3-b]pyridin-5-yloxy)benzamide] the pKi was > 11.00.
With CC1(C)CCC(CN2CCN(c3ccc(C(=O)NS(=O)(=O)c4ccc(OCC5(F)CCN(C6CCOCC6)CC5)c([N+](=O)[O-])c4)c(Oc4cnc5[nH]ccc5c4)c3)CC2)=C(c2ccc(Cl)cc2)C1 [Compound 192, 4-(4-{[2-(4-chlorophenyl)-4,4-dimethylcyclohex-1-en-1-yl]methyl}piperazin-1-yl)-N-({4-[(4-fluoro-1-tetrahydro-2H-pyran-4-ylpiperidin-4-yl)methoxy]-3-nitrophenyl}sulfonyl)-2-(1H-pyrrolo[2,3-b]pyridin-5-yloxy)benzamide] the pKi was > 11.00.
For CC1(C)CCC(CN2CCN(c3ccc(C(=O)NS(=O)(=O)c4ccc(OCC5(F)CCN(C6CCOC6)CC5)c([N+](=O)[O-])c4)c(Oc4cnc5[nH]ccc5c4)c3)CC2)=C(c2ccc(Cl)cc2)C1 (stereo not drawn) [Compound 193, 4-(4-{[2-(4-chlorophenyl)-4,4-dimethylcyclohex-1-en-1-yl]methyl}piperazin-1-yl)-N-({4-[(4-fluoro-1-tetrahydrofuran-3-ylpiperidin-4-yl)methoxy]-3-nitrophenyl}sulfonyl)-2-(1H-pyrrolo[2,3-b]pyridin-5-yloxy)benzamide], the pKi was > 11.00.
CC1(C)CCC(CN2CCN(c3ccc(C(=O)NS(=O)(=O)c4ccc(OCC5(F)CCN(S(C)(=O)=O)CC5)c([N+](=O)[O-])c4)c(Oc4cnc5[nH]ccc5c4)c3)CC2)=C(c2ccc(Cl)cc2)C1 [Compound 194, 4-(4-{[2-(4-chlorophenyl)-4,4-dimethylcyclohex-1-en-1-yl]methyl}piperazin-1-yl)-N-[(4-{[4-fluoro-1-(methylsulfonyl)piperidin-4-yl]methoxy}-3-nitrophenyl)sulfonyl]-2-(1H-pyrrolo[2,3-b]pyridin-5-yloxy)benzamide] was tested, and the pKi was > 11.00.
With CC1(C)CCC(CN2CCN(c3ccc(C(=O)NS(=O)(=O)c4ccc(NC[C@H]5CCN(C6COC6)C5)c([N+](=O)[O-])c4)c(Oc4cnc5[nH]ccc5c4)c3)CC2)=C(c2ccc(Cl)cc2)C1 [Compound 195, 4-(4-{[2-(4-chlorophenyl)-4,4-dimethylcyclohex-1-en-1-yl]methyl}piperazin-1-yl)-N-{[3-nitro-4-({[(3R)-1-oxetan-3-ylpyrrolidin-3-yl]methyl}amino)phenyl]sulfonyl}-2-(1H-pyrrolo[2,3-b]pyridin-5-yloxy)benzamide] the pKi was > 11.00.
For CN(C)CCCOc1ccc(CNc2ccc(S(=O)(=O)NC(=O)c3ccc(N4CCN(CC5=C(c6ccc(Cl)cc6)CC(C)(C)CC5)CC4)cc3Oc3cnc4[nH]ccc4c3)cc2[N+](=O)[O-])cc1 [Compound 197, 4-(4-{[2-(4-chlorophenyl)-4,4-dimethylcyclohex-1-en-1-yl]methyl}piperazin-1-yl)-N-{[4-({4-[3-(dimethylamino)propoxy]benzyl}amino)-3-nitrophenyl]sulfonyl}-2-(1H-pyrrolo[2,3-b]pyridin-5-yloxy)benzamide], the pKi was > 11.00.
In the case of CC1(C)CCC(CN2CCN(c3ccc(C(=O)NS(=O)(=O)c4ccc(NCc5ccc(OCCN6CCOCC6)cc5)c([N+](=O)[O-])c4)c(Oc4cnc5[nH]ccc5c4)c3)CC2)=C(c2ccc(Cl)cc2)C1 [Compound 198, 4-(4-{[2-(4-chlorophenyl)-4,4-dimethylcyclohex-1-en-1-yl]methyl}piperazin-1-yl)-N-[(4-{[4-(2-morpholin-4-ylethoxy)benzyl]amino}-3-nitrophenyl)sulfonyl]-2-(1H-pyrrolo[2,3-b]pyridin-5-yloxy)benzamide], the pKi was > 11.00.
In the case of CC1(C)CCC(CN2CCN(c3ccc(C(=O)NS(=O)(=O)c4ccc(NCC56CC7CC(C5)C(O)C(C7)C6)c([N+](=O)[O-])c4)c(Oc4cnc5[nH]ccc5c4)c3)CC2)=C(c2ccc(Cl)cc2)C1 (stereo not drawn) [Compound 199, 4-(4-{[2-(4-chlorophenyl)-4,4-dimethylcyclohex-1-en-1-yl]methyl}piperazin-1-yl)-N-{[4-({[(E)-4-hydroxy-1-adamantyl]methyl}amino)-3-nitrophenyl]sulfonyl}-2-(1H-pyrrolo[2,3-b]pyridin-5-yloxy)benzamide], the pKi was > 11.00.
For CC1(C)CCC(CN2CCN(c3ccc(C(=O)NS(=O)(=O)c4ccc(NCC56CC7CC(C5)C(O)C(C7)C6)c([N+](=O)[O-])c4)c(Oc4cnc5[nH]ccc5c4)c3)CC2)=C(c2ccc(Cl)cc2)C1 (stereo not drawn) [Compound 200, 4-(4-{[2-(4-chlorophenyl)-4,4-dimethylcyclohex-1-en-1-yl]methyl}piperazin-1-yl)-N-{[4-({[(Z)-4-hydroxy-1-adamantyl]methyl}amino)-3-nitrophenyl]sulfonyl}-2-(1H-pyrrolo[2,3-b]pyridin-5-yloxy)benzamide], the pKi was > 11.00.
CN1CC(Nc2ccc(S(=O)(=O)NC(=O)c3ccc(N4CCN(CC5=C(c6ccc(Cl)cc6)CC(C)(C)CC5)CC4)cc3Oc3cnc4[nH]ccc4c3)cc2[N+](=O)[O-])CC1=O (stereo not drawn) [Compound 202, 4-(4-{[2-(4-chlorophenyl)-4,4-dimethylcyclohex-1-en-1-yl]methyl}piperazin-1-yl)-N-({4-[(1-methyl-5-oxopyrrolidin-3-yl)amino]-3-nitrophenyl}sulfonyl)-2-(1H-pyrrolo[2,3-b]pyridin-5-yloxy)benzamide] was tested, and the pKi was > 11.00.
